From ChEMBL document CHEMBL1201862, “PubChem BioAssay data set” (2004)
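96-well plates; 48 h exposure; 5 concentrations. Endpoints by linear interpolation between flanking doses. Not reached: highest tested concentration assigned. At the GI50, growth is halved.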 Activity calls are given as the source filed them. Cut-off read from the data, not from the text of the source: active = GI50 up to about 1.1 µM and inactive = higher.

Assays:
Experiment in all cases: NCI anticancer screen, dose series, 48 h
[1] = test system: 786-0
[2] = test system: A498
[3] = test system: A549
[4] = test system: ACHN
[5] = test system: CAKI-1
[6] = test system: CCRF-CEM
[7] = test system: COLO 205
[8] = test system: DLD-1
[9] = test system: DMS-114
[10] = test system: DMS-273
[11] = test system: EKVX
[12] = test system: HCC 2998
[13] = test system: HCT-116
[14] = test system: HCT-15
[15] = test system: HL-60
[16] = test system: HOP-18
[17] = test system: HT-29
[18] = test system: K562
[19] = test system: KM-20L2
[20] = test system: KM12
[21] = test system: LOX IMVI
[22] = test system: LXFL 529
[23] = test system: M14
[24] = test system: MOLT-4
[25] = test system: Malme-3M
[26] = test system: NCI-H226
[27] = test system: NCI-H23
[28] = test system: NCI-H460
[29] = test system: OVCAR-3
[30] = test system: OVCAR-4
[31] = test system: OVCAR-5
[32] = test system: OVCAR-8
[33] = test system: RPMI-8226
[34] = test system: RXF 393
[35] = test system: RXF 631
[36] = test system: SF-268
[37] = test system: SF-295
[38] = test system: SF-539
[39] = test system: SK-MEL-28
[40] = test system: SK-MEL-2
[41] = test system: SK-MEL-5
[42] = test system: SK-OV-3
[43] = test system: SN12C
[44] = test system: SNB-19
[45] = test system: SNB-75
[46] = test system: SNB-78
[47] = test system: SW-620
[48] = test system: TK-10
[49] = test system: U-251
[50] = test system: UACC-257
[51] = test system: UO-31
[52] = test system: XF498
[53] = test system: HOP-92
[54] = test system: IGROV-1
[55] = test system: NCI-H522
[56] = test system: SR
[57] = test system: UACC-62

SMILES: Cc1cccc(C)c1NC(=O)CCCC(=O)C1CCC/C1=N\NC(=O)C(=O)NN (stereo not given)
- GI50 [1]: > 100 µM (inactive)
- GI50 [2]: > 100 µM (inactive)
- GI50 [3]: > 100 µM (inactive)
- GI50 [4]: > 100 µM (inactive)
- GI50 [5]: > 100 µM (inactive)
- GI50 [6]: > 100 µM (inactive)
- GI50 [7]: > 100 µM (inactive)
- GI50 [8]: > 100 µM (inactive)
- GI50 [9]: > 100 µM (inactive)
- GI50 [10]: > 100 µM (inactive)
- GI50 [11]: > 100 µM (inactive)
- GI50 [12]: > 100 µM (inactive)
- GI50 [13]: > 100 µM (inactive)
- GI50 [14]: > 100 µM
- GI50 [15]: > 100 µM (inactive)
- GI50 [16]: > 100 µM (inactive)
- GI50 [17]: > 100 µM (inactive)
- GI50 [18]: > 100 µM (inactive)
- GI50 [19]: > 100 µM (inactive)
- GI50 [20]: > 100 µM (inactive)
- GI50 [21]: > 100 µM (inactive)
- GI50 [22]: > 100 µM (inactive)
- GI50 [23]: > 100 µM (inactive)
- GI50 [24]: > 100 µM (inactive)
- GI50 [25]: > 100 µM (inactive)
- GI50 [26]: > 100 µM (inactive)
- GI50 [27]: > 100 µM (inactive)
- GI50 [28]: > 100 µM (inactive)
- GI50 [29]: > 100 µM (inactive)
- GI50 [30]: > 100 µM (inactive)
- GI50 [31]: > 100 µM (inactive)
- GI50 [32]: > 100 µM (inactive)
- GI50 [33]: > 100 µM (inactive)
- GI50 [34]: 24.5 µM (inactive)
- GI50 [35]: > 100 µM (inactive)
- GI50 [36]: > 100 µM (inactive)
- GI50 [37]: > 100 µM (inactive)
- GI50 [38]: > 100 µM (inactive)
- GI50 [39]: > 100 µM (inactive)
- GI50 [40]: > 100 µM (inactive)
- GI50 [41]: > 100 µM (inactive)
- GI50 [42]: > 100 µM (inactive)
- GI50 [43]: > 100 µM (inactive)
- GI50 [44]: > 100 µM (inactive)
- GI50 [45]: > 100 µM (inactive)
- GI50 [46]: > 100 µM (inactive)
- GI50 [47]: > 100 µM (inactive)
- GI50 [48]: > 100 µM (inactive)
- GI50 [49]: > 100 µM (inactive)
- GI50 [50]: > 100 µM (inactive)
- GI50 [51]: > 100 µM (inactive)
- GI50 [52]: > 100 µM (inactive)

SMILES: C1=CCN(c2ccccc2)CC1
- GI50 [2]: > 100 µM (inactive)
- GI50 [3]: > 100 µM (inactive)
- GI50 [4]: 21.5 µM (inactive)
- GI50 [6]: 6.38 µM (inactive)
- GI50 [7]: 34.5 µM (inactive)
- GI50 [8]: 15.5 µM (inactive)
- GI50 [9]: 32.4 µM (inactive)
- GI50 [10]: > 100 µM (inactive)
- GI50 [11]: 97.1 µM (inactive)
- GI50 [12]: 49.9 µM (inactive)
- GI50 [13]: 29.6 µM (inactive)
- GI50 [14]: 14.8 µM
- GI50 [15]: 11.9 µM (inactive)
- GI50 [16]: 63.5 µM (inactive)
- GI50 [53]: 21.2 µM (inactive)
- GI50 [17]: 23.6 µM (inactive)
- GI50 [54]: 29.9 µM (inactive)
- GI50 [18]: 30.1 µM (inactive)
- GI50 [19]: 55.6 µM (inactive)
- GI50 [20]: 64.9 µM (inactive)
- GI50 [21]: 43.9 µM (inactive)
- GI50 [22]: 18.6 µM (inactive)
- GI50 [23]: 19.9 µM (inactive)
- GI50 [24]: 5.69 µM (inactive)
- GI50 [25]: 22.6 µM (inactive)
- GI50 [27]: 31.5 µM (inactive)
- GI50 [28]: > 100 µM (inactive)
- GI50 [55]: 16.3 µM (inactive)
- GI50 [29]: 25.4 µM (inactive)
- GI50 [31]: > 100 µM (inactive)
- GI50 [32]: 27 µM (inactive)
- GI50 [33]: 2.48 µM (inactive)
- GI50 [34]: 12.2 µM (inactive)
- GI50 [35]: > 100 µM (inactive)
- GI50 [36]: 36.6 µM (inactive)
- GI50 [37]: > 100 µM (inactive)
- GI50 [38]: 43.5 µM (inactive)
- GI50 [39]: 24.8 µM (inactive)
- GI50 [40]: 39.1 µM (inactive)
- GI50 [41]: 62.7 µM (inactive)
- GI50 [42]: > 100 µM (inactive)
- GI50 [43]: 26.3 µM (inactive)
- GI50 [44]: > 100 µM (inactive)
- GI50 [45]: 33.1 µM (inactive)
- GI50 [46]: 29.8 µM (inactive)
- GI50 [56]: 2.93 µM (inactive)
- GI50 [47]: 16.3 µM (inactive)
- GI50 [48]: 40 µM (inactive)
- GI50 [49]: > 100 µM (inactive)
- GI50 [50]: 28.4 µM (inactive)
- GI50 [57]: 30.3 µM (inactive)
- GI50 [51]: > 100 µM (inactive)
- GI50 [52]: 17.1 µM (inactive)
